In US12162858B2, “Quinoline derivatives as inhibitors of AXL/MER RTK and CSF1R” (QURIENT CO., LTD., priority 2018, dated 2024):

Assays:
CSF1R (M-NFS-60 cells) = assay: Cell Titer-Glo viability assay using M-NFS-60 cells; format: cell-based; conditions: Mus musculus, read-out: Cellular CSF1R activity by M-NFS-60 viability assay (IC50 activity range)
Description: M-NFS-60 cells were cultured in RPMI-1640 medium containing 10% FBS, 0.05 mM 2-Mercaptoethanol, penicillin (100 U/ml)/streptomycin ([…]) and supplemented with 62 ng/ml recombinant human M-CSF at 37° C./5% CO2. Aliquots of the cells were seeded into a 96-well plate (2×10^5 cells in 100 μl/well) and then incubated at 37° C./5% CO2 1 h. Dissolve compound in 100% DMSO to make 10 mM stock solutions (Aliquots stored in the Nitrogen Cabinet). Dilute 10 mM compounds solutions for 2-fold in 100% DMSO to get 5 mM solutions (10 μl+10 μl DMSO), and then make a 3-fold serial dilution (10 μl+20 μl DMSO) for 10 doses. For reference compounds: Dilute 10 mM compounds solutions for 20-fold in 100% DMSO to get 0.5 mM solutions (2 μl+38 μl DMSO), and then make a 3-fold serial dilution (10 μl+20 μl DMSO) for 8 doses. The 96-well plate was equilibrated at room temperature for 30 min. 50 μl of CellTiter-Glo® Reagent added to each well and mixed for 2 min on an orbital shaker to induce cell lysis. The 96-well plate was incubated at room temperature for 10 min to stabilize luminescent signal. Luminescent was measured […] by EnVison plate reader. Calculations and Formulas: The following calculations and formulas are used for data analysis using XL Fit software: The curve fitting was made using the Sigmoidal Dose-Response Model (Fit model, 205).

CSF1R = CSF1R (Homo sapiens, UniProt P07333); assay: Cellular CSF1R inhibition ELISA (p-CSF1R, M-CSF-induced) using THP-1 cells; format: cell-based; set-up: THP-1 cells act as a model for human monocytes; endogenous in cells; host or cells: THP-1
From the text: The normal proto-oncogene c-fms encodes the macrophage growth factor (M-CSF, also known as CSF1) receptor involved in growth, survival, and differentiation along the monocyte-macrophage lineage. THP-1 cells act as a model for human monocytes. It confirms that an increased phosphorylation of CSF1R (p-CSF1R) can be observed, when induced by CSF1R ligand, CSF1.
The THP-1 cells should be maintained from 5×10^5 to 1×10^6 cells/ml in the cell culture flask. After centrifugation, the supernatant is aspirated. The cell pellet is re-suspended with pre-warmed growth medium (RPMI1640, 10% FBS, 0.05 mM 2-Mercaptoethanol) and cells are separated by pipetting 6 times up and down with a 10 ml serological pipette. The cell suspension has to be diluted to a final concentration of 2×10^5 cells per 80 μl with pre-warmed growth medium. 80 μl of cell suspension is added to all wells of plates. Cell-plates are incubated at 37° C./5% CO2. Dissolve compound in 100% DMSO to make 10 mM stock solutions (Aliquots stored in the Nitrogen Cabinet). Dilute 10 mM compounds solutions for 2-fold in 100% DMSO to get 5 mM solutions (10 μl+10 μl DMSO), and then make a 3-fold serial dilution (10 μl+20 μl DMSO) for 10 doses. For reference compounds: Dilute 10 mM compounds solutions for 20-fold in 100% DMSO to get 0.5 mM solutions (2 μl+38 μl DMSO), and then make a 3-fold serial dilution (10 μl+20 μl DMSO) for 10 doses. Transfer 2 μl diluted compounds to 198 μl medium to get solution of 50 μM concentration at top point for compounds and 5 μM for reference compounds. Then transfer 20 μl cpd solution into assay plate (Duplicate wells). The plate is incubated at 37° C./5% CO2 for 24 h. The final concentration of DMSO in all wells is […]. Reconstitute human M-CSF at 50 μg/ml in sterile water. (Aliquots stored in −80° C.). 1:1000 dilute human M-CSF by fresh medium to 50 ng/ml. After 24 h compounds treatment, transfer 25 μl diluted human M-CSF (50 ng/ml) to cell plate according to the plate map. The final concentration of human M-CSF in all wells is 10 ng/ml.
The plates is incubated at 37° C./5% CO2 for 5 min. In the beginning the appropriate amount of lysis buffer complete (100 μL/well) is prepared and stored on ice. After 5 min human M-CSF stimulation, wash plates once with 300 μL ice cold PBS. Then 100 μl lysis buffer is added to each well. The plate is shacked for 40 min at 4° C. Plates can now be stored at −20° C. After equilibrate the micro-well strips at room temperature, break off the required number of micro-wells. Place the micro-wells in the strip holder. Unused micro-wells must be resealed and stored at 4° C. immediately. Add 90 μl of cell lysate to the appropriate well. Seal with tape and press firmly onto top of micro-wells. Incubate the plate for 2 h at 37° C. Gently remove the tape and wash wells 4 times with 1× Wash Buffer, 200 μl each time for each well. Add 100 μl of reconstituted Detection Antibody (green color) to each well. Seal with tape and incubate the plate at 37° C. for 1 h. Repeat wash procedure. Add 100 μl of reconstituted HRP-Linked secondary antibody to each well. Seal with tape and incubate the plate for 30 min at 37° C. Repeat wash procedure. Add 100 μl of TMB Substrate to each well. Seal with tape and incubate the plate for 10 min at 37° C. or 30 min at 25° C. Calculations and Formulas: The following calculations and formulas are used for data analysis using XL Fit software: The curve fitting was made using the Sigmoidal Dose-Response Model (Fit model, 205).

CSF1R, sequence (P07333 20-972): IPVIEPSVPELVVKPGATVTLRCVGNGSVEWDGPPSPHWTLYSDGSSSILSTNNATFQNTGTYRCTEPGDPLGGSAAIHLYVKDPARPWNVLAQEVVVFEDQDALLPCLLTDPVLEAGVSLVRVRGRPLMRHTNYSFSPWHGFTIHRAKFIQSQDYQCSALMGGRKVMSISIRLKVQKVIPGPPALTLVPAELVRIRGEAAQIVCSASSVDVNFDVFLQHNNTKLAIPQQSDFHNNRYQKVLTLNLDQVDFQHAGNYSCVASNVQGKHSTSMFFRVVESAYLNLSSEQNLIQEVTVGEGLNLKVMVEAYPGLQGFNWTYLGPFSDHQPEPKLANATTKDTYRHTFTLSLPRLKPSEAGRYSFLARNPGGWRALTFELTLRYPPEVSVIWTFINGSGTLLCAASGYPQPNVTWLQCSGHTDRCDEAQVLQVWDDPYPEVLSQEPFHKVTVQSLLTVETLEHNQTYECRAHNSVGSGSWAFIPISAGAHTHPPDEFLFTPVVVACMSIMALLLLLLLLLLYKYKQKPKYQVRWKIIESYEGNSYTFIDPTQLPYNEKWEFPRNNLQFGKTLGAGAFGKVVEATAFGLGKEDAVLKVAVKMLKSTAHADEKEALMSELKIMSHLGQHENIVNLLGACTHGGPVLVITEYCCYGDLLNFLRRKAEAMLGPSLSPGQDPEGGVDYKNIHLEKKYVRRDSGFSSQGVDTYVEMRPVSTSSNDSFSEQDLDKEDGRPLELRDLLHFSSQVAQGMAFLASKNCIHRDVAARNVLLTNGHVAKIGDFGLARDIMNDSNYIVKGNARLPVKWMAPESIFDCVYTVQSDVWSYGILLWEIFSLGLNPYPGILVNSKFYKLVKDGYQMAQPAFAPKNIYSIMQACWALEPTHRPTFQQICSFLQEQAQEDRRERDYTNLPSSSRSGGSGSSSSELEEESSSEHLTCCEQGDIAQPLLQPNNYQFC

Compound	IC50 (CSF1R (M-NFS-60 cells)) [nM]	IC50 (CSF1R) [nM]
COc1cc2nccc(Oc3ccc(NC(=O)c4nn(CC(C)O)cc4OC(C)C)nc3)c2cc1OC (stereo not drawn) [Compound 151]	< 1000	< 500
COc1cc2nccc(Oc3ccc(NC(=O)c4nn(C5CCOC5)cc4OCC(F)(F)F)nn3)c2cc1OC (stereo not drawn) [Compound 128]	1000 to 10000	< 500
COc1cc2nccc(Oc3ccc(NC(=O)c4nn(C5CCN(C)C5)cc4OCC(F)(F)F)nn3)c2cc1OC (stereo not drawn) [Compound 157]	1000 to 10000	500 to 1000
COc1cc2nccc(Oc3ccc(NC(=O)c4nn(C5CC5)cc4OC(C)C)nn3)c2cc1OC [Compound 147]	1000 to 10000	500 to 1000
CCn1cc(OC(C)C)c(C(=O)Nc2ccc(Oc3ccnc4cc(OC)c(OC)cc34)cn2)n1 [Compound 6]	< 1000	< 500
CNCCn1cc(OCC(F)(F)F)c(C(=O)Nc2ccc(Oc3ccnc4cc(OC)c(OC)cc34)nn2)n1 [Compound 127]	≥ 10000	≥ 1000
COc1cc2nccc(Oc3ccc(NC(=O)c4nn(CC(C)O)cc4OCC4CCC4)nc3)c2cc1OC (stereo not drawn) [Compound 163]	1000 to 10000	500 to 1000
CCCn1cc(OCCNC)c(C(=O)Nc2ccc(Oc3ccnc4cc(OC)c(OC)cc34)cn2)n1 [Compound 140]	1000 to 10000	≥ 1000
COc1cc2nccc(Oc3ccc(NC(=O)c4nn(CC5COC5)cc4OCC(F)(F)F)nn3)c2cc1OC [Compound 123]	1000 to 10000	≥ 1000
COc1cc2nccc(Oc3ccc(NC(=O)c4nn(C5CC5)cc4NCCC(F)(F)F)nc3)c2cc1OC [Compound 142]	1000 to 10000	< 500
COc1cc2nccc(Oc3ccc(NC(=O)c4nn(CCN)cc4OCC(F)(F)F)nn3)c2cc1OC [Compound 125]	≥ 10000	≥ 1000
COc1cc2nccc(Oc3ccc(NC(=O)c4nn(CC5COC5)cc4OCC(F)(F)F)cc3C)c2cc1OC [Compound 99]	1000 to 10000	500 to 1000
COc1cc2nccc(Oc3ccc(NC(=O)c4nn(C5CCOC5)cc4OCC(F)(F)F)cn3)c2cc1OC (stereo not drawn) [Compound 138]	1000 to 10000	≥ 1000
COc1cc2nccc(Oc3ccc(NC(=O)c4nn(C5CC5)cc4OCC4COC4)nc3)c2cc1OC [Compound 143]	1000 to 10000	< 500
CCn1cc(OCC2CCC2)c(C(=O)Nc2ccc(Oc3ccnc4cc(OC)c(OC)cc34)cn2)n1 [Compound 8]	< 1000	< 500
CCCn1cc(OCC2CCOCC2)c(C(=O)Nc2ccc(Oc3ccnc4cc(OC)c(OC)cc34)cn2)n1 [Compound 164]	≥ 10000	≥ 1000
COc1cc2nccc(Oc3ccc(NC(=O)c4nn(C5CC5)cc4OCC(F)(F)F)nn3)c2cc1OC [Compound 112]	1000 to 10000	500 to 1000
COc1cc2nccc(Oc3ccc(NC(=O)c4nn(C5CC5)cc4OCC4CCC4)nn3)c2cc1OC [Compound 149]	1000 to 10000	≥ 1000
CNCCn1cc(OCC(F)(F)F)c(C(=O)Nc2ccc(Oc3ccnc4cc(OC)c(OC)cc34)cn2)n1 [Compound 11]	< 1000	500 to 1000
CNCCn1cc(OCC(F)(F)F)c(C(=O)Nc2ccc(Oc3ccnc4cc(OC)c(OC)cc34)cc2)n1 [Compound 119]	1000 to 10000	≥ 1000

Compound	IC50 (CSF1R (M-NFS-60 cells)) [nM]	IC50 (CSF1R) [nM]
CCCn1cc(OCCN(C)C)c(C(=O)Nc2ccc(Oc3ccnc4cc(OC)c(OC)cc34)c(F)c2)n1 [Compound 165]	1000 to 10000	≥ 1000
COc1cc2nccc(Oc3ccc(NC(=O)c4nn(CC5COC5)cc4OCC(F)(F)F)cc3F)c2cc1OC [Compound 97]	1000 to 10000	≥ 1000
COc1cc2nccc(Oc3ccc(NC(=O)c4nn(C5CCN(C)C5)cc4OCC(F)(F)F)cc3)c2cc1OC (stereo not drawn) [Compound 100]	1000 to 10000	≥ 1000
COc1cc2nccc(Oc3ccc(NC(=O)c4nn(CC(C)C)cc4OCC(F)(F)F)cn3)c2cc1OC [Compound 103]	1000 to 10000	≥ 1000
COc1cc2nccc(Oc3ccc(NC(=O)c4nn(C5CC5)cc4OCC4COC4)nn3)c2cc1OC [Compound 161]	1000 to 10000	≥ 1000
COc1cc2nccc(Oc3ccc(NC(=O)c4nn(C5CCNC5)cc4OCC(F)(F)F)nn3)c2cc1OC (stereo not drawn) [Compound 122]	1000 to 10000	≥ 1000
COc1cc2nccc(Oc3ccc(NC(=O)c4nn(CC(C)O)cc4OCCF)nc3)c2cc1OC (stereo not drawn) [Compound 152]	< 1000	< 500
CNCCn1cc(OCC(F)(F)F)c(C(=O)Nc2ccc(Oc3ccnc4cc(OC)c(OC)cc34)cc2F)n1 [Compound 154]	1000 to 10000	≥ 1000
CCCn1cc(OCC(F)(F)F)c(C(=O)Nc2ccc(Oc3ccnc4cc(OC)c(OC)cc34)nc2)n1 [Compound 139]	1000 to 10000	≥ 1000
COc1cc2nccc(Oc3ccc(NC(=O)c4nn(CCOC5CC5)cc4OCC(F)(F)F)cc3F)c2cc1OC [Compound 116]	1000 to 10000	500 to 1000
COc1cc2nccc(Oc3ccc(NC(=O)c4nn(C5CC5)cc4OCCF)nn3)c2cc1OC [Compound 113]	1000 to 10000	< 500
COc1cc2nccc(Oc3ccc(NC(=O)c4nn(C5CC5)cc4NCC(F)(F)F)nn3)c2cc1OC [Compound 148]	1000 to 10000	≥ 1000
COc1cc2nccc(Oc3ccc(NC(=O)c4nn(C5CC5)cc4OCC4CCC4)nc3)c2cc1OC [Compound 111]	1000 to 10000	500 to 1000
COc1cc2nccc(Oc3ccc(NC(=O)c4nn(CCOC5CC5)cc4OCC(F)(F)F)nn3)c2cc1OC [Compound 120]	1000 to 10000	500 to 1000
COc1cc2nccc(Oc3ccc(NC(=O)c4nn(C5CC5)cc4OCC(F)F)nc3)c2cc1OC [Compound 109]	< 1000	< 500
COc1cc2nccc(Oc3ccc(NC(=O)c4nn(C5CC5)cc4OC(C)C)nc3)c2cc1OC [Compound 108]	< 1000	< 500
CNCCOc1cn(C2CC2)nc1C(=O)Nc1ccc(Oc2ccnc3cc(OC)c(OC)cc23)nn1 [Compound 160]	≥ 10000	≥ 1000
COc1cc2nccc(Oc3ccc(NC(=O)c4nn(CCN(C)C)cc4OCC(F)(F)F)nc3)c2cc1OC [Compound 9]	< 1000	< 500
CCCn1cc(OCC(F)(F)F)c(C(=O)Nc2ccc(Oc3ccnc4cc(OC)c(OC)cc34)cn2)n1 [Compound 7]	< 1000	< 500
